Laboratory results published in patent publication US20130045500A1, “CELL EVALUATION METHOD” (NATIONAL CANCER CENTER, priority 2011, published 2013).

Test system: human breast-cancer-derived cell line T47D
Assay: Survival rate by ATP assay (CellTiter-Glo) and number of spheroids on NanoCulture plate
Assay type: cell-based
Settings: trastuzumab 10 μg/mL, paclitaxel 6.0 μg/mL, 7 days after medicine was added, expected effects confirmed in b72 (FIG. 8, FIG. 9)
Protocol: A human breast-cancer-derived cell line T47D was suspended in a culture medium (NCM-M made by SCIVAX Co., Ltd.), and seeded on a NanoCulture (registered mark) plate (made by SCIVAX Co., Ltd., 96-well plate, material of concavo-convex structure surface: cyclic-olefin polymer (COP), planar shape of concavo-convex structure: regular hexagon, width between unit structures (line width): 700 nm, minimum internal diameter of unit structure: 3 μm, and depth: 1 μm) at 1×10^4 cells/well, and incubated at 37° C. and 5% CO2.
The survival rate of the cell on the tenth day (the seventh day after medicines were added) was evaluated based on the assay of the ATP in the cell using CellTiter-Glo Luminescent Cell Viability Assay (Promega KK.) and calculated as a relative value, and the results are shown in FIG. 8.

CC(=O)O[C@H]1C(=O)[C@@]2(C)[C@H]([C@H](OC(=O)c3ccccc3)[C@]3(O)C[C@H](OC(=O)[C@H](O)[C@@H](NC(=O)c4ccccc4)c4ccccc4)C(C)=C1C3(C)C)[C@]1(OC(C)=O)CO[C@@H]1C[C@@H]2O [paclitaxel]
antitumor effect (ATP amount in the cell and number of spheroids): shows an antitumor effect
